Assays:
Assay in all cases: AUC of viability dose-response curve (% viability x log10 dose units); higher = less sensitive
Settings in all cases: 48 h
NOMO1 = system: NOMO1
Method in brief: (§1)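 Leukemia cells adapted to each medium were seeded in 1536-well plates (500 or 1000 cells/well) and given library compounds in DMSO for 48 h at 37°C. The 11 threefold doses spanned 47 μM to 0.79 nM, and CellTiter-Glo One luminescence was normalised per plate to DMSO and cell-free wells before four-parameter log-logistic fitting on log10 dose. Area under the curve was integrated with the trapezoidal rule, scaling curves above full viability and removing curves that failed quality control.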

SEM cells = system: SEM cells
Method in brief: as §1

P12-Ichikawa = system: P12-Ichikawa
Method in brief: as §1

[1] = RPMI 5 mM glucose + 10% dialyzed FBS

CCC(=O)O[C@@]1([C@@H](C)C[C@H]2[C@@H]3CCC/4=C/C(=O)/C=C\[C@]4(C)[C@@]3(F)[C@@H](O)C[C@]12C)C(=O)CCl
AUC of viability dose-response curve (NOMO1; HPLM + 10% dialyzed FBS): 411
AUC of viability dose-response curve (NOMO1; RPMI 5 mM glucose + 10% FBS): 467
AUC of viability dose-response curve (NOMO1; [1]): 429
AUC of viability dose-response curve (SEM cells; HPLM + 10% dialyzed FBS): 339
AUC of viability dose-response curve (SEM cells; RPMI 5 mM glucose + 10% FBS): 336
AUC of viability dose-response curve (SEM cells; [1]): 308
AUC of viability dose-response curve (P12-Ichikawa; HPLM + 10% dialyzed FBS): 325
AUC of viability dose-response curve (P12-Ichikawa; RPMI 5 mM glucose + 10% FBS): 254
AUC of viability dose-response curve (P12-Ichikawa; [1]): 251

Nc1nc(-c2nn(Cc3ccccc3F)c3ncccc23)nc(N)c1N1CCOCC1
AUC of viability dose-response curve (NOMO1; HPLM + 10% dialyzed FBS): 461
AUC of viability dose-response curve (NOMO1; RPMI 5 mM glucose + 10% FBS): 458
AUC of viability dose-response curve (NOMO1; [1]): 467
AUC of viability dose-response curve (SEM cells; HPLM + 10% dialyzed FBS): 462
AUC of viability dose-response curve (SEM cells; RPMI 5 mM glucose + 10% FBS): 458
AUC of viability dose-response curve (SEM cells; [1]): 467
AUC of viability dose-response curve (P12-Ichikawa; HPLM + 10% dialyzed FBS): 469
AUC of viability dose-response curve (P12-Ichikawa; RPMI 5 mM glucose + 10% FBS): 463
AUC of viability dose-response curve (P12-Ichikawa; [1]): 473

CC[C@H]1OC(=O)[C@H](C)[C@@H](O[C@H]2C[C@@](C)(OC)[C@@H](O)[C@H](C)O2)[C@H](C)[C@@H](O[C@@H]2O[C@@H](C)C[C@H](N(C)C)[C@H]2O)[C@](C)(O)C[C@@H](C)C(=O)[C@H](C)[C@@H](O)[C@]1(C)O
AUC of viability dose-response curve (NOMO1; HPLM + 10% dialyzed FBS): 423
AUC of viability dose-response curve (NOMO1; RPMI 5 mM glucose + 10% FBS): 403
AUC of viability dose-response curve (NOMO1; [1]): 429
AUC of viability dose-response curve (SEM cells; HPLM + 10% dialyzed FBS): 401
AUC of viability dose-response curve (SEM cells; RPMI 5 mM glucose + 10% FBS): 418
AUC of viability dose-response curve (SEM cells; [1]): 400
AUC of viability dose-response curve (P12-Ichikawa; HPLM + 10% dialyzed FBS): 402
AUC of viability dose-response curve (P12-Ichikawa; RPMI 5 mM glucose + 10% FBS): 402
AUC of viability dose-response curve (P12-Ichikawa; [1]): 411

CCC1=C[C@@H]2CN(C1)Cc1c([nH]c3ccccc13)[C@@](C(=O)OC)(c1cc3c(cc1OC)N(C)[C@H]1[C@@](O)(C(=O)OC)[C@H](OC(C)=O)[C@]4(CC)C=CCN5CC[C@]31[C@@H]54)C2
AUC of viability dose-response curve (NOMO1; HPLM + 10% dialyzed FBS): 256
AUC of viability dose-response curve (NOMO1; RPMI 5 mM glucose + 10% FBS): 259
AUC of viability dose-response curve (NOMO1; [1]): 260
AUC of viability dose-response curve (SEM cells; HPLM + 10% dialyzed FBS): 244
AUC of viability dose-response curve (SEM cells; RPMI 5 mM glucose + 10% FBS): 187
AUC of viability dose-response curve (SEM cells; [1]): 241
AUC of viability dose-response curve (P12-Ichikawa; HPLM + 10% dialyzed FBS): 202
AUC of viability dose-response curve (P12-Ichikawa; RPMI 5 mM glucose + 10% FBS): 182
AUC of viability dose-response curve (P12-Ichikawa; [1]): 238

COCCOC(=O)C/1=C(C)/NC/2=C(C1C3=CC=CC(=C3)O)/C(=O)CC(C2)C4=C(OC)C=CC=C4 (configuration not stated)
AUC of viability dose-response curve (NOMO1; HPLM + 10% dialyzed FBS): 454
AUC of viability dose-response curve (NOMO1; RPMI 5 mM glucose + 10% FBS): 469
AUC of viability dose-response curve (NOMO1; [1]): 467
AUC of viability dose-response curve (SEM cells; HPLM + 10% dialyzed FBS): 425
AUC of viability dose-response curve (SEM cells; RPMI 5 mM glucose + 10% FBS): 415
AUC of viability dose-response curve (SEM cells; [1]): 413
AUC of viability dose-response curve (P12-Ichikawa; HPLM + 10% dialyzed FBS): 450
AUC of viability dose-response curve (P12-Ichikawa; RPMI 5 mM glucose + 10% FBS): 451
AUC of viability dose-response curve (P12-Ichikawa; [1]): 448

C#CCN(C)[C@H](C)Cc1ccccc1
AUC of viability dose-response curve (NOMO1; HPLM + 10% dialyzed FBS): 401
AUC of viability dose-response curve (NOMO1; RPMI 5 mM glucose + 10% FBS): 385
AUC of viability dose-response curve (NOMO1; [1]): 410
AUC of viability dose-response curve (SEM cells; HPLM + 10% dialyzed FBS): 401
AUC of viability dose-response curve (SEM cells; RPMI 5 mM glucose + 10% FBS): 410
AUC of viability dose-response curve (SEM cells; [1]): 407
AUC of viability dose-response curve (P12-Ichikawa; HPLM + 10% dialyzed FBS): 431
AUC of viability dose-response curve (P12-Ichikawa; RPMI 5 mM glucose + 10% FBS): 413
AUC of viability dose-response curve (P12-Ichikawa; [1]): 402

CN1C(=O)\C(=C/C(=C1/NC2=C(F)C=C(I)C=C2)C(=O)NOCCO)C
AUC of viability dose-response curve (NOMO1; HPLM + 10% dialyzed FBS): 257
AUC of viability dose-response curve (NOMO1; RPMI 5 mM glucose + 10% FBS): 281
AUC of viability dose-response curve (NOMO1; [1]): 253
AUC of viability dose-response curve (SEM cells; HPLM + 10% dialyzed FBS): 398
AUC of viability dose-response curve (SEM cells; RPMI 5 mM glucose + 10% FBS): 403
AUC of viability dose-response curve (SEM cells; [1]): 342
AUC of viability dose-response curve (P12-Ichikawa; HPLM + 10% dialyzed FBS): 441
AUC of viability dose-response curve (P12-Ichikawa; RPMI 5 mM glucose + 10% FBS): 423
AUC of viability dose-response curve (P12-Ichikawa; [1]): 451

Clc1ccc(C2(c3ccc(-c4cn[nH]c4)cc3)CCNCC2)cc1
AUC of viability dose-response curve (NOMO1; HPLM + 10% dialyzed FBS): 427
AUC of viability dose-response curve (NOMO1; RPMI 5 mM glucose + 10% FBS): 389
AUC of viability dose-response curve (NOMO1; [1]): 395
AUC of viability dose-response curve (SEM cells; HPLM + 10% dialyzed FBS): 384
AUC of viability dose-response curve (SEM cells; RPMI 5 mM glucose + 10% FBS): 445
AUC of viability dose-response curve (SEM cells; [1]): 388
AUC of viability dose-response curve (P12-Ichikawa; HPLM + 10% dialyzed FBS): 419
AUC of viability dose-response curve (P12-Ichikawa; RPMI 5 mM glucose + 10% FBS): 369
AUC of viability dose-response curve (P12-Ichikawa; [1]): 390
